Source: US20260108529A1, “FUSED AMINO PYRIMIDINE COMPOUNDS FOR TREATMENT OF TINNITUS, ACUTE SENSORINEURAL HEARING LOSS, AGE-RELATED HEARING LOSS, AND MENIERE'S DISEASE” (Ovid Therapeutics Inc., priority 2024, published 2026)

Target: T1, KCC2 (Homo sapiens, UniProt Q9H2X9)
T1 construct: expressed in transfected cells; host or cells: HEK-293 (ATCC CRL-1573)
T1 sequence (Q9H2X9 1-1116 isoform Q9H2X9-2): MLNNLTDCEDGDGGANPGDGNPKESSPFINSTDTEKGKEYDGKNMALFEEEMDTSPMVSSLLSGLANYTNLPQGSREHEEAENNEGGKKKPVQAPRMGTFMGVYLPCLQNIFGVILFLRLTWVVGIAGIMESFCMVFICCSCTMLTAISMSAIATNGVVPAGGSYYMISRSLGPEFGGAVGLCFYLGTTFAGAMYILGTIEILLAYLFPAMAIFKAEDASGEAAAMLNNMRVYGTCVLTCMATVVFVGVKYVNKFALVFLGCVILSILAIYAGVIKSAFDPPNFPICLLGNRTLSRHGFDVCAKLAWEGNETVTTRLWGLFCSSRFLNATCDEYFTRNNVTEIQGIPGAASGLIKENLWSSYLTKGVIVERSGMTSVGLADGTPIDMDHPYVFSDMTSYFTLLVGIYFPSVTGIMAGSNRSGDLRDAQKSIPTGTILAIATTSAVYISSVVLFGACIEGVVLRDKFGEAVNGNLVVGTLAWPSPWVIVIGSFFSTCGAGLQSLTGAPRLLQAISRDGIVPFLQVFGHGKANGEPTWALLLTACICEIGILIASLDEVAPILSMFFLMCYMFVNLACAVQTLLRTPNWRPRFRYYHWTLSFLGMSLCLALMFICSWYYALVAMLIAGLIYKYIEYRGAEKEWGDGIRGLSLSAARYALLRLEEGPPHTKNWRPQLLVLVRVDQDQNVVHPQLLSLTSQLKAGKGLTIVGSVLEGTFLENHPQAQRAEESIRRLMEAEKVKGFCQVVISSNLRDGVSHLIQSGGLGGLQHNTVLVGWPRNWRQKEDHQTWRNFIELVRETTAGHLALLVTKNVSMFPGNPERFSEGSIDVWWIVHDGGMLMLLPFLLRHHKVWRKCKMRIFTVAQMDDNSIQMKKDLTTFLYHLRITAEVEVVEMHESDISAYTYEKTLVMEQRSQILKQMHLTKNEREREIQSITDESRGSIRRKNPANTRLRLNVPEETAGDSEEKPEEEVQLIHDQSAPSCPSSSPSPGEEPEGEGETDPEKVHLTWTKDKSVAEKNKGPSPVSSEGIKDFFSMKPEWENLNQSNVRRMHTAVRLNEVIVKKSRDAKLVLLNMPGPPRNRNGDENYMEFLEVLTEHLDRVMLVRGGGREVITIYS
Test: Biotinylation, plasma membrane level of KCC2 in HEK-293 cells
Assay type: cell-based
Conditions: 15 min, surface/total KCC2
Procedure: Cell Culture and biotinylation. HEK-293 cells were purchased from ATCC (CRL-1573) and transfected with human KCC2 and GFP expression plasmids using Lipofectamine 2000. Cells were utilized for experimentation 48-72 h following transfection. Cells were biotinylated at 4° C. using NHS-Biotin. Following lysis and purification on immobilized avidin beads, cell surface and total fractions were subject to immunoblotting as outlined previously (Conway et al., 2017, supra).
The reliability of the biotinylation procedure was assessed via immunoblotting with antibodies against the cytosolic protein actin. Actin was present in the total lysates but was absent from the surface fractions (FIG. 2C).

- level of KCC2 on the plasma membrane (0.3 μM): 94.5±8.4 % of control
- level of KCC2 on the plasma membrane (3 μM): 104.7±8.4 % of control
Structure (SMILES): C[C@@H]1CN(c2nc3c(c(Nc4ccc(C5CCCCC5)cc4)n2)COC3)CCO1 [Compound A, (R)—N-(4-cyclohexylphenyl)-2-(2-methylmorpholino)-5,7-dihydrofuro[3,4-d]pyrimidin-4-amine]
